System: HCV 1b-377-neo replicon cells
Test: HCV replicon assay, wild-type cells
Format: cell-based
Conditions: Hepatitis C virus, against the HCV 1b genotype, read-out: EC50 Range
Protocol: An HCV Replion assay was utilized in the present disclosure, and was prepared, conducted and validated as described in commonly owned PCT/US2006/022197 and in O'Boyle et al. Antimicrob Agents Chemother. 2005 Apr;49(4):1346-53.
HCV 1b-377-neo replicon cells were used to test the currently described compound series as well as cells resistant to compound A due to a Y2065H mutation in NS5A (described in application PCT/US2006/022197). The compounds tested were determined to have more than 10-fold less inhibitory activity on cells resistant to compound A than wild-type cells indicating a related mechanism of action between the two compound series. Thus, the compounds of the present disclosure can be effective to inhibit the function of the HCV NS5A protein and are understood to be as effective in combinations as previously described in application PCT/US2006/022197 and commonly owned WO/04014852. Further, the compounds of the present disclosure can be effective against the HCV 1b genotype. It should also be understood that the compounds of the present disclosure can inhibit multiple genotypes of HCV. […] In one embodiment compounds of the present disclosure are active against the 1a, 1b, 2a, 2b, 3a, 4a, and 5a genotypes.

For `COCC[C@H](NC(=O)OC)C(=O)N[C@H](c1nc(-c2ccc(-c3ccc(-c4c[nH]c([C@@H]5CCCN5C(=O)[C@H](CCOC)NC(=O)OC)n4)cc3)cc2)c[nH]1)C(C)C` [Example R20, methyl ((1S)-3-methoxy-1-(((2S)-2-(4-(4'-(2-((1S)-1-((N-(methoxycarbonyl)-O-methyl-L-homoseryl)amino)-2-methylpropyl)-1H-imidazol-4-yl)-4-biphenylyl)-1H-imidazol-2-yl)-1-pyrrolidinyl)carbonyl)propyl)carbamate], which EC50 is on record?
The EC50 was 0.001 to 0.999 nM.

For `COC(=O)N[C@H](C(=O)Nc1ncc(-c2ccc(-c3ccc(-c4cnc([C@@H]5CCCN5C(=O)[C@@H](NC(=O)OC)C(C)C)[nH]4)cc3)cc2)[nH]1)C(C)C` [Example R33, (S)-2-methoxycarbonylamino-N-(5-(4'-(2-((S)-1-((S)-2-methoxycarbonylamino-3-methylbutanoyl)pyrrolidin-2-yl)-1H-imidazol-5-yl)biphenyl-4-yl)-1H-imidazol-2-yl)-3-methylbutanamide], which EC50 is on record?
Its EC50 is 1 to 99 nM.
